Experimental data: PMC6272327, “Discovery of Metal Ions Chelator Quercetin Derivatives with Potent Anti-HCV Activities” (Molecules, 2015)
Like-named read-outs stand apart in the source and are kept apart here.

Assays:
HCV NS5B polymerase = target: HCV NS5B polymerase; parameters: method as in PMID 14695815, PMID 15481971, PMID 15149686; details: HCV NS5B polymerase inhibition, Figures 1 and 2; cited from earlier work
[1] = system: HCV infectious virus J399EM; parameters: method as in PMID 22445328; details: cited from earlier work; for inhibition against HCV: at 50 μM, previous results
[2] = system: HCV infectious virus J399EM; assay: Anti-HCV assay in authentic HCV infection/replication system (J399EM EGFP reporter virus) in Huh7.5.1 cells; assay type: cell-based, hepatitis C virus (JFH1-derived, genotype 2a); details: for EC50: Hepatitis C virus, Huh-7.5.1, 72 h; for SI (selectivity index): ratio of CC50 to EC50, Huh7.5.1 cells
Protocol: (§1) The inhibition of HCV by all synthesized quercetin derivatives was evaluated following a previously reported procedure. All newly synthesized compounds were tested in authentic HCV infection/replication system in the human hepatoma cell lines Huh7.5.1 using mycophenolic acid (MPA) as control compound. The cytotoxicity effect of the test compounds was also evaluated in the same cell line by MTT method. Antiviral effect and cytotoxicity effect were summarized as EC50 and CC50 respectively, as well as the selective index (SI) which is the ratio of CC50 to EC50. The stability of quercetin-3-O-ester compounds were also tested in the same buffer as the antiviral activity assay at 37 °C and the hydrolysate was measured by HPLC.
The biological assays were performed following a previously reported procedure. The Huh7.5.1 cell line and the HCV infectious virus J399EM were kindly provided by Xin-Wen Chen, Wuhan Institute of Virology, Chinese Academy of Sciences. Huh7.5.1 cells were cultured in Dulbecco’s modified Eagle’s medium (DMEM) containing 10% (v/v) fetal bovine serum, 0.5 mg/mL G418, 100 IU/mL penicillin, and […].
J399EM is an infectious HCV virus derived from the JFH1 virus (genotype 2a) by insertion of enhanced green fluorescent protein (EGFP) into the HCV NS5A region. The establishment of the infectious J399EM HCV virus has been described previously. J399EM was propagated in Huh7.5.1 cells. Briefly, Huh7.5.1 cells were infected with J399EM at MOI = 0.1 and cultured for 4 days. Culture supernatant was collected and filtered through a 0.45 μm membrane and stored at −80 °C as virus stock. Virus titer was tested in Huh7.5.1 cells. Stocks were serially diluted, and the foci forming units (FFU) were determined as the number of fluorescent colonies formed in infected Huh7.5.1.
All the compounds were first dissolved in DMSO at 50 mM, and then diluted to various concentrations (50 μM, 25 μM, 12.5 μM, 6.3 μM and 3.1 μM). Approximately 1 × 10^4 Huh7.5.1 cells per well were plated in an opaque 96-well tissue culture plate (Costar 3904). The next day, the medium was replaced by J399EM virus at an MOI of 0.3. Four hours later, the virus inoculum was removed and medium containing different concentrations of compounds was added. After an additional 72 h of incubation, the culture medium was removed and the EGFP autofluorescence was measured by using a […] with excitation at 488 nm and emission at 516 nm. Compounds and controls were performed in duplicate and each experiment repeated independently at least twice.

[3] = Cell viability / cytotoxicity by MTT method; assay type: cell-based; details: human
Protocol: as §1
After the EGFP signal was read, cell viability was measured in the same plate by the MTT [3-(4,5-dimethylthiazol-2-yl)-2,5-diphenyltetrazolium bromide; Sigma-Aldrich, St. Louis, MO, USA] method. Briefly, MTT (1 mg/mL) was dissolved in PBS. Cell culture supernatants were removed and replaced with MTT and further cultured for 4 h; cells were then lysed with 10% sodium dodecyl sulfate (SDS), 50% N,N-dimethylformamide, pH 7.2. OD570 values were read. The percentage of cell death was calculated against the control well without compounds.

HCV RdRp = system: HCV RdRp; parameters: method as in PMID 25053847; details: at the concentration of 20 μM in an enzyme assay; cited from earlier work

Row | Compound | EC50 [2] | SI (selectivity index) [2] | CC50 [3] | melting point | other results
1 | O=C(O)/C(O)=C/C(=O)c1ccccc1 [Compound 1a] |  |  |  |  | IC50 (HCV NS5B polymerase): 5.7 µM
2 | O=c1c(O)c(-c2ccc(O)cc2)oc2cc(O)cc(O)c12 [kaempferol] |  |  |  |  | inhibition against HCV [1]: 51.9%
3 | meconic acid [Compound 1c] |  |  |  |  | IC50 (HCV NS5B polymerase): 2.3 µM
4 | Cc1ccc(COc2cc(O)c3c(=O)c(O)c(-c4ccc(O)c(O)c4)oc3c2)cc1 [Compound 3q, 2-(3,4-Dihydroxyphenyl)-3,5-dihydroxy-7-((4-methylbenzyl)oxy)-4H-chromen-4-one] | 6.7 ± 1.4 µM | 2.4 | 15.9 ± 1 µM | 261 to 264 °C | 
5 | COc1ccc(C(=O)Oc2c(-c3ccc(O)c(O)c3)oc3cc(O)cc(O)c3c2=O)cc1 [Compound 4m, 2-(3,4-Dihydroxyphenyl)-5,7-dihydroxy-4-oxo-4H-chromen-3-yl 4-methoxybenzoate] | 13.6 ± 2.1 µM | 2.5 | 33.9 ± 3.7 µM | 194 to 195 °C | 
6 | N#Cc1c(Cl)cc(Cl)cc1COc1cccc(C(=O)/C=C(\O)C(=O)O)c1 [Compound 1b] |  |  |  |  | IC50 (HCV NS5B polymerase): 0.045 µM
7 | O=c1c(O)c(-c2ccc(O)c(O)c2)oc2cc(OCc3ccc(Br)cc3)cc(O)c12 [Compound 3p, 7-((4-Bromobenzyl)oxy)-2-(3,4-dihydroxyphenyl)-3,5-dihydroxy-4H-chromen-4-one] | 5.5 ± 1.5 µM | 6.4 | 35.4 ± 1.6 µM | 256 to 257 °C | 
8 | CC(C)Oc1c(-c2ccc(O)c(O)c2)oc2cc(O)cc(O)c2c1=O [Compound 12b, 2-(3,4-Dihydroxyphenyl)-5,7-dihydroxy-3-isopropoxy-4H-chromen-4-one] | 38.9 ± 2.5 µM | 0.7 | 28.8 ± 2 µM | 259 to 262 °C | 
9 | O=c1c(O)c(-c2ccc(O)c(O)c2)oc2cc(OCc3ccccc3)cc(O)c12 [Compound 3a, 7-(Benzyloxy)-2-(3,4-dihydroxyphenyl)-3,5-dihydroxy-4H-chromen-4-one] | 8.7 ± 0.2 µM | >5.8 | > 50 µM | 255 to 257 °C | 
10 | O=c1c(O)c(-c2ccc(O)c(O)c2)oc2cc(OCc3ccccc3F)cc(O)c12 [Compound 3b, 2-(3,4-Dihydroxyphenyl)-7-((2-fluorobenzyl)oxy)-3,5-dihydroxy-4H-chromen-4-one] | 5 ± 0.1 µM | 3.1 | 15.4 ± 0.1 µM | 254 to 255 °C | 
11 | COc1cc(-c2oc3cc(O)cc(O)c3c(=O)c2O)ccc1O [isorhamnetin] |  |  |  |  | inhibition against HCV [1]: 47.3%
12 | COc1ccccc1C(=O)Oc1c(-c2ccc(O)c(O)c2)oc2cc(O)cc(O)c2c1=O [Compound 4d, 2-(3,4-Dihydroxyphenyl)-5,7-dihydroxy-4-oxo-4H-chromen-3-yl 2-methoxybenzoate] | 11.7 ± 1.3 µM | >4.3 | > 50 µM | 183 to 184 °C | 
13 | O=c1c(O)c(-c2ccc(O)c(O)c2)oc2cc(OCc3ccc(Cl)cc3)cc(O)c12 [Compound 3o, 7-((4-Chlorobenzyl)oxy)-2-(3,4-dihydroxyphenyl)-3,5-dihydroxy-4H-chromen-4-one] | 3.9 ± 0.3 µM | 3.9 | 15.1 ± 0.1 µM | 266 to 267 °C | 
14 | O=C(O)c1nc(-c2cccs2)nc(O)c1O [Compound 1d, dihydroxypyrimidine carboxylic acid] |  |  |  |  | IC50 (HCV NS5B polymerase): 2.6 µM
15 | O=c1c(O)c(-c2ccc(O)c(O)c2)oc2cc(OCc3cccc(F)c3)cc(O)c12 [Compound 3h, 2-(3,4-Dihydroxyphenyl)-7-((3-fluorobenzyl)oxy)-3,5-dihydroxy-4H-chromen-4-one] | 6.3 ± 0.2 µM |  | 44.5 ± 3.7 µM | 243 to 245 °C | 
16 | O=c1c(O)c(-c2ccc(O)c(O)c2)oc2cc(O)cc(O)c12 [Compound 2, quercetin] |  | >2.5 |  |  | CC50 ([3]; Huh7.5.1 cells, MTT, concentration required to reduce cell proliferation by 50%, average of duplicate determinations, read-out: CC50): > 50 µM; EC50 ([1]; anti-HCV activity of quercetin, earlier work of the authors): 19.8 µM; inhibition of HCV RdRp (HCV RdRp): 83.7%
17 | O=C(Oc1c(-c2ccc(O)c(O)c2)oc2cc(O)cc(O)c2c1=O)c1cccc(F)c1 [Compound 4f, 2-(3,4-Dihydroxyphenyl)-5,7-dihydroxy-4-oxo-4H-chromen-3-yl 3-fluorobenzoate] | 9 ± 4.5 µM | >5.6 | > 50 µM | 211 to 213 °C | 
18 | O=c1c(O)c(-c2ccc(O)c(O)c2)oc2cc(OCc3cccc([N+](=O)[O-])c3)cc(O)c12 [Compound 3m, 2-(3,4-Dihydroxyphenyl)-3,5-dihydroxy-7-((3-nitrobenzyl)oxy)-4H-chromen-4-one] | 6.6 ± 1.1 µM | 2.3 | 15 ± 0.1 µM | 264 to 266 °C | 
19 | N#Cc1ccc(COc2cc(O)c3c(=O)c(O)c(-c4ccc(O)c(O)c4)oc3c2)cc1 [Compound 3r, 4-(((2-(3,4-Dihydroxyphenyl)-3,5-dihydroxy-4-oxo-4H-chromen-7-yl)oxy)methyl)benzonitrile] | 6.2 ± 0.2 µM | 1.6 | 10.1 ± 0.1 µM | 252 to 254 °C | 
20 | O=c1c(O)c(-c2ccc(O)c(O)c2)oc2cc(OCc3cccc(Cl)c3)cc(O)c12 [Compound 3i, 7-((3-Chlorobenzyl)oxy)-2-(3,4-dihydroxyphenyl)-3,5-dihydroxy-4H-chromen-4-one] | 3.8 ± 0.2 µM | 7.2 | 27.2 ± 0.2 µM | 260 to 261 °C | 
21 | Cc1cccc(COc2cc(O)c3c(=O)c(O)c(-c4ccc(O)c(O)c4)oc3c2)c1 [Compound 3k, 2-(3,4-Dihydroxyphenyl)-3,5-dihydroxy-7-((3-methylbenzyl)oxy)-4H-chromen-4-one] | 4.7 ± 0.4 µM | 6.9 | 32.5 ± 0.7 µM | 224 to 226 °C | 
22 | O=c1c(O)c(-c2ccc(O)c(O)c2)oc2cc(OCc3ccccc3Br)cc(O)c12 [Compound 3d, 7-((2-Bromobenzyl)oxy)-2-(3,4-dihydroxyphenyl)-3,5-dihydroxy-4H-chromen-4-one] | 5.5 ± 0.2 µM | 6.8 | 37.4 ± 0.8 µM | 248 to 249 °C | 
